Test results from patent publication US7632657B2, “Method of detecting meticillin-resistant microorganisms” (priority 2002, dated 2009).

Experiments:
[1] = Conservation of antibiotic activity on heating; format: physicochemical; details: temperature of greater than 100° C.; resistance verified by the inventors at 121° C.
Method: (its resistance having even been verified by the inventors at 121° C.).

[2] = Stability of the detection medium prepared with the antibiotic; format: physicochemical; details: added when the medium is at 48° C.
Method: For example, a stability of at least 2 months has been observed for a medium in accordance with the invention prepared with cefoxitin at a concentration of 5 mg/l, added to the medium when the latter is at a temperature of 48° C. The stability of the medium in accordance with the invention has been brought to at least 5 months when said medium has been prepared with cefmetazole at a concentration of 2.5 mg/l, added to the medium when the latter is at a temperature of 48° C.
The expression “stability of the medium” is intended to denote the ability of the medium in accordance with the invention to allow the selective detection of meticillin-resistant microorganisms, in particular staphylococcus aureus, for a given period of time, with the same reliability throughout the period of time.

[3] = test system: MRhet: (heterogeneous) meticillin-resistant strain; assay: Growth of S. aureus strains streaked on CHROMagar Staph aureus medium with antibiotic: heterogeneous meticillin-resistant strain; format: cell-based, Staphylococcus aureus; set-up: key: + = colony growth; − = no growth; * = microcolonies; details: streaked dishes, 37° C. for 24 hours
Description: (§1) Study of the growth of meticillin-resistant S. aureus strains on CHROMagar Staph aureus medium (available from the company CHROMagar, 4, Place du 18 Juin 1940, 75006 Paris France): • AR4295 MetiS: meticillin-sensitive strain • AR4297 MetiR: (homogeneous) meticillin-resistant strain • MRhet: (heterogeneous) meticillin-resistant strain • Z252: meticillin-resistant strain, homogeneous, low level of resistance
(§2) Petri dishes are inoculated with bacterial cultures by streaking the dishes, in order to observe the growth of isolated bacteria, after incubation at 37° C. for 24 hours.
(§3) The bacteria that grow give purple colonies on the culture medium, confirming that the microorganisms are Staphylococcus aureus.

[4] = test system: AR4297 MetiR: (homogeneous) meticillin-resistant strain; assay: Growth of S. aureus strains streaked on CHROMagar Staph aureus medium with antibiotic: homogeneous meticillin-resistant strain; format: cell-based, Staphylococcus aureus; set-up: key: + = colony growth; − = no growth; * = microcolonies; details: CHROMagar Staph aureus + Cefoxitin 5 mg/l; streaked dishes, 37° C. for 24 hours
Description: as §1, §2, §3

[5] = test system: Z252: meticillin-resistant strain, homogeneous, low level of resistance; assay: Growth of S. aureus strains streaked on CHROMagar Staph aureus medium with antibiotic: low-level resistant strain; format: cell-based, Staphylococcus aureus; set-up: key: + = colony growth; − = no growth; * = microcolonies; details: streaked dishes, 37° C. for 24 hours
Description: as §1, §2, §3

[6] = test system: AR4295 MetiS: meticillin-sensitive strain; assay: Growth of S. aureus strains streaked on CHROMagar Staph aureus medium with antibiotic: meticillin-sensitive strain; format: cell-based, Staphylococcus aureus; set-up: key: + = colony growth; − = no growth; * = microcolonies; details: streaked dishes, 37° C. for 24 hours
Description: as §1, §2, §3

[7] = CHROMagar Staph aureus + Cefoxitin 5 mg/l
[8] = CHROMagar Staph aureus + oxacillin 6 mg/ml

Compound: CO[C@@]1(NC(=O)CSC(F)F)C(=O)N2C(C(=O)O)=C(CSc3nnnn3CCO)CO[C@@H]21 [flomoxef]
- ability to conserve antibiotic activity on heating [1]: conserve its antibiotic activity

Compound: CO[C@@]1(NC(=O)Cc2cccs2)C(=O)N2C(C(=O)O)=C(COC(N)=O)CS[C@@H]21 [Cefoxitin, cefoxitin]
- stability of the medium ([2]; medium prepared with cefoxitin at 5 mg/l): at least 2 months
- colony growth, MRhet [3, 7]: +
- colony growth, AR4297 MetiR [4]: +
- colony growth, Z252 [5, 7]: +
- colony growth, AR4295 MetiS [6, 7]: −

Compound: Cc1onc(-c2ccccc2)c1C(=O)N[C@@H]1C(=O)N2[C@@H]1SC(C)(C)[C@@H]2C(=O)O [oxacillin]
- colony growth, MRhet [3, 8]: −
- colony growth, Z252 [5, 8]: −
- colony growth, AR4295 MetiS [6, 8]: −

Compound: CO[C@@]1(NC(=O)CSCC#N)C(=O)N2C(C(=O)O)=C(CSc3nnnn3C)CS[C@@H]21 [cefmetazole]
- stability of the medium ([2]; medium prepared with cefmetazole at 2.5 mg/l): at least 5 months
